Assay results reported in PubChem BioAssay AID1645848.
Converted amounts (≈) assume the structure as drawn.

Details: buffer; pH 7.4; 6.0 h; 150.0 µM

SMILES	solubility kinetic
C#CC1(O)CCC2C3CCC4=C/C(=N/OCC(=O)NCC(=O)NC(C(=O)O)C(C)C)CC[C@]4(C)C3CC[C@@]21C (stereo partly drawn)	> 80 µg/mL
Cc1c(C(=O)OCCOc2ccccc2)[nH]c2c1C(=O)CC(c1ccccc1)C2 (stereo not drawn)	< 1 µg/mL
O=C(O)c1ccccc1C(=O)Nc1ccc(-c2ccccc2)cc1	> 47 µg/mL
COc1cccc(CNc2ccc(S(=O)(=O)Nc3nc4ccccc4s3)cc2)c1O	2.08 µg/mL (≈ 4.72 µM)
C=C1C(=O)O[C@@H]2[C@H]3O[C@]3(C)CC/C=C(\C)CC[C@@H]12	7.28 µg/mL (≈ 29.3 µM)
CC(C)C[C@H]1C(=O)N2CCC[C@H]2[C@]2(O)O[C@](NC(=O)[C@@H]3C=C4c5cccc6[nH]c(Br)c(c56)C[C@H]4N(C)C3)(C(C)C)C(=O)N12	< 1 µg/mL
COc1ccc(Cl)cc1C(=O)Nc1ccc(NC(=O)c2ccco2)cc1	< 1 µg/mL
CC(=O)NC1CCN(c2nc(-c3ccc(Br)cc3)cs2)CC1	5.01 µg/mL (≈ 13.2 µM)
CC1Oc2cc3c(-c4c(O)cc(O)c5c(O)c6c(cc45)OC(C)C(C)C6=O)c(O)cc(O)c3c(O)c2C(=O)C1C (stereo not drawn)	53.5 µg/mL (≈ 97.8 µM)
CC(C)(C)c1ccc(C(=O)N2CC(=O)Nc3ccc(F)cc3C2c2ccc(F)cc2)cc1 (stereo not drawn)	< 1 µg/mL
CN1C(=O)c2ccccc2[S@](=O)c2ccc(C(=O)NCCc3cccs3)cc21	45.9 µg/mL (≈ 112 µM)
Cc1cnc(-c2ccccc2C(C)(C)C)nc1NCc1ccc(-n2ccnn2)cc1	13.2 µg/mL (≈ 33.2 µM)
CC(C)c1ccccc1-c1nc(NCc2ccc(-c3cccnc3)cc2)c2ccccc2n1	< 1 µg/mL
CC1CCN(S(=O)(=O)c2ccc3c(c2)C(C)(C)C(=O)N3CC(=O)NCc2ccco2)CC1	34.2 µg/mL (≈ 74.4 µM)
CC(C)Oc1ccc(CCNC(=O)c2cc3sccc3n2Cc2ccccc2)cc1OC(C)C	< 1 µg/mL
C=Cc1ccc(C(=O)N2CCCC(CCC(=O)N3CCN(c4ccccn4)CC3)C2)cc1 (stereo not drawn)	> 64 µg/mL
COc1ccc(C2Nc3ccccc3C(=O)N2Cc2ccco2)cc1COc1c(C)cc(NC(C)=O)cc1C (stereo not drawn)	1.53 µg/mL (≈ 2.92 µM)
O=C1CCCC2=C1C(c1[nH]ncc1Cl)N=C(Nc1nc3cc([S+](=O)([O-])N4CCCC4)ccc3o1)N2 (stereo not drawn)	36.2 µg/mL (≈ 70.2 µM)
O=C(Nc1nc(-c2ccc(F)cc2)cs1)c1ccncc1NS(=O)(=O)c1ccccc1Cl	< 1 µg/mL
Cc1cccc2nc(NC3=NC(c4[nH]ncc4Cl)C4=C(CCCC4=O)N3)oc12 (stereo not drawn)	1.82 µg/mL (≈ 4.6 µM)
CC[C@H](Nc1ncnc2nc[nH]c12)c1nc2cccc(F)c2c(=O)n1-c1ccccc1	> 61 µg/mL
CCOC(=O)CCNc1cc(N2CCc3ccccc3CC2)nc(-c2ccccn2)n1	8.45 µg/mL (≈ 20.2 µM)
O=S(=O)(Nc1nccs1)c1ccc(NCc2cccc(F)c2O)cc1	> 56 µg/mL
CC(C)NC(=O)C1CCN(C(=O)c2cc3sccc3n2Cc2ccc(Cl)cc2)CC1	< 1 µg/mL
Cn1c(=O)c2c(nc(Cl)n2Cc2ccc(Cl)cc2)n(C)c1=O	2.15 µg/mL (≈ 6.32 µM)

SMILES	solubility kinetic
O=C(Nc1ccc(S(=O)(=O)Nc2nccs2)cc1)c1cccc2ccccc12	1.39 µg/mL (≈ 3.39 µM)
O=C(NCCCNc1nc(Nc2cccc(NC(=O)N3CCCC3)c2)ncc1I)c1cccs1	14.2 µg/mL (≈ 24 µM)
NC(=O)C1CCN(c2nc(-c3cccc(C(F)(F)F)c3)cs2)CC1	2.41 µg/mL (≈ 6.78 µM)
COc1ccc(-c2nc(-c3c(C)noc3C)cc3c2cc(C)n3CCN(C)C)cc1OC	> 96 µg/mL
Cc1ccc(S(=O)(=O)Nc2cnccc2C(=O)Nc2nc(-c3cccnc3)cs2)cc1	> 67 µg/mL
O=C1NC(=S)NC(=O)C1=Cc1cccn1-c1ccc(O)cc1	37 µg/mL (≈ 118 µM)
CN(C)C(=O)c1nc(-c2ccc(Cl)nc2)c2ccccn12	27.6 µg/mL (≈ 91.8 µM)
Oc1ccc(CNc2cccc(F)c2F)c2cccnc12	< 1 µg/mL
CC1(C)CC(=O)C2=C(C1)NC(Nc1nc3ccccc3o1)=NC2c1ccccc1Cl (stereo not drawn)	< 1 µg/mL
O=c1c2ccccc2nc2n1CCC2	> 27 µg/mL
COc1cc(-c2cc3c(nc2-c2ccccc2)nc(C(=O)NC2CCN(C)CC2)n3C)ccn1	> 67 µg/mL
CCn1c(=O)cc(OCC(=O)N2CCN(c3cccc(Cl)c3)CC2)c2ccccc21	2.64 µg/mL (≈ 6.2 µM)
CC(=O)Nc1ccc(OCc2cn(CC(=O)c3ccc(O)cc3)nn2)cc1	18.7 µg/mL (≈ 51 µM)
CC1=Nc2cc(C(=O)NCCc3ccccc3)ccc2Sc2c(C)ccc(C)c21	< 1 µg/mL
Cc1cc(SCc2sc(-c3ccc(C(F)(F)F)cc3)nc2C)ccc1OCC(=O)O	> 67 µg/mL
O=C(O)c1ccnc2cc(-c3nc4ccccc4n3CCN3CCCCC3)sc12	6.93 µg/mL (≈ 17.1 µM)
CN1CCN(C2=Nc3cc(Cl)ccc3Nc3ccccc32)CC1	25.1 µg/mL (≈ 76.8 µM)
NC(=O)C1CCN(c2nc(-c3ccc(Br)cc3)cs2)CC1	< 1 µg/mL
O=S(=O)(Nc1nc2ccccc2s1)c1ccc(NCc2cccc(Cl)c2O)cc1	1.1 µg/mL (≈ 2.46 µM)
Cc1cc(-c2nnc3n2CCCCC3)c(C)n1-c1ccccc1	> 45 µg/mL
CC#CC(=O)N1CCC[C@H]1c1nc(-c2ccc(C(=O)Nc3ccccn3)cc2)c2c(N)nccn12	> 69 µg/mL
Cc1ccc(S(=O)(=O)Nc2ncccc2C(=O)Nc2nc(-c3ccccc3)cs2)cc1	< 1 µg/mL
O=C(NCc1ccccc1)C1CCN(c2nc(-c3ccc(Br)cc3)cs2)CC1	2.48 µg/mL (≈ 5.43 µM)
O=C(Nc1nnc(C2CCCCC2)s1)c1ccc(Br)s1	< 1 µg/mL
Nc1nc(N)c2c(OCC3CCN(Cc4ccccc4F)CC3)cccc2n1	> 56 µg/mL

SMILES	solubility kinetic
COc1ccc(NC(=O)c2c(C)c(C(C)=O)c(C)n2C)cc1S(=O)(=O)Nc1ccc(Br)cc1	< 1 µg/mL
CCOC(=O)C1CCN(C(=O)C2(NC(=O)Nc3ccc(F)cc3F)CCCCC2)CC1	41.8 µg/mL (≈ 95.6 µM)
Cc1ccccc1C(=O)N1CCc2cc(-c3nc(NC(=O)CC4CCCCC4)sc3C)ccc21	< 1 µg/mL
COc1ccc(CCNC(=O)c2cc3c(=O)n4ccccc4nc3n(CCCN3CCOCC3)c2=N)cc1	> 76 µg/mL
O=C(Cc1ccc(-c2csc(Nc3ccc(F)cc3)n2)s1)N1CCOCC1	2.31 µg/mL (≈ 5.73 µM)
CC(=O)Nc1ccc(C(=O)Nc2ccccc2N)cc1	> 40 µg/mL
CC(=O)c1ccc(N2CCN(c3ccc(NC(=O)c4ccc(F)cc4)cc3C(=O)O)CC2)cc1	< 1 µg/mL
CCc1cccc(-n2nnc(-c3nsc(NC(=O)c4cccc(OC)c4)n3)c2C)c1	< 1 µg/mL
Fc1ccc(Nc2nc(C3=CCNCC3)nc3ccccc23)cc1F	> 50 µg/mL
COc1ccc2[nH]c(S(=O)Cc3ncc(C)c(OC)c3C)nc2n1 (stereo not drawn)	> 51 µg/mL
CC(C)=CCNc1ncnc2nc[nH]c12	> 30 µg/mL
CC1(C)CC2CC(C)(CN2S(=O)(=O)c2ccc(C(=O)Nc3ccc(Cl)cc3)cc2)C1 (stereo not drawn)	< 1 µg/mL
NC(=O)C1CCN(c2nc(-c3ccccc3Br)cs2)CC1	> 54 µg/mL
O=C(Nc1ncc(Cc2ccc(C(F)(F)F)cc2)s1)c1cccc(-c2ccccc2)c1	< 1 µg/mL
CCOc1ccc(S(=O)(=O)NCc2cccnc2)cc1NC(=O)c1ccccc1F	< 1 µg/mL
COC(=O)c1sccc1NC(=O)c1sccc1C	< 1 µg/mL
O=C(Nc1nc(-c2ccccc2)cs1)c1ccncc1NS(=O)(=O)c1c(F)cc(F)cc1F	58 µg/mL (≈ 118 µM)
Cc1ccc(-c2cc(C(=O)Nc3ccc(-n4cncn4)cc3)c3ccccc3n2)cc1C	< 1 µg/mL
Cn1nnnc1Sc1ncnc2sccc12	> 37 µg/mL
CC(C)NC(=O)N1C[C@@H]2C[C@H](C1)c1ccc(-c3cccc(C(F)(F)F)c3)c(=O)n1C2	> 93 µg/mL
COc1ccc(NC(=O)c2c(C)cccc2C)cc1S(=O)(=O)Nc1ccc(Br)cc1	< 1 µg/mL
COc1ccc(NC(=O)c2cccnc2)cc1S(=O)(=O)Nc1ccc(Br)cc1	33.5 µg/mL (≈ 72.5 µM)
Cc1ccc(-c2cc(C(=O)Nc3ccncc3)c3ccccc3n2)cc1	< 1 µg/mL
COCCCOc1ccnc(CS(=O)c2nc3ccccc3[n-]2)c1C (stereo not drawn)	19.2 µg/mL
Cc1ccc(Nc2nc(NCCO)c3ccccc3n2)cc1C.Cl	28.1 µg/mL

SMILES	solubility kinetic
CCOC(=O)[C@H]1O[C@@H]1C(=O)N[C@@H](CC(C)C)C(=O)NCCC(C)C	24 µg/mL (≈ 70.1 µM)
O=C1C(c2ccc(C(F)(F)F)cc2)=C(Nc2ccc(Cl)cc2)c2ccccc21	< 1 µg/mL
Fc1ccc(CN2CCOC[C@H]2c2ncc(-c3ccc(Cl)s3)[nH]2)cc1	5.47 µg/mL (≈ 14.5 µM)
Cc1sc(NC(=O)Cc2ccc3c(c2)OCO3)nc1-c1ccc2c(c1)CCN2	< 1 µg/mL
O=c1c2c([nH]c3ccc(Br)cc13)CCCC2	4.86 µg/mL (≈ 17.5 µM)
COc1c(NS(=O)(=O)c2ccc(C)cc2)cccc1C(=O)Nc1nc(-c2ccccc2)cs1	< 1 µg/mL
CCCCCCC.CN1C(=O)CN=C(c2ccc[nH]2)c2cc(Cl)ccc21	> 40 µg/mL
Cc1nc(-c2ccco2)cc([C@H]2CN3CC[C@H]2C[C@@H]3CNC(=O)NC2CCCCC2)n1	> 63 µg/mL
O=C(NCCCc1ccccc1)c1cccc(-c2cc(O)c3ncccc3c2)c1	< 1 µg/mL
Cc1ccc(-c2cc(C(=O)NC3CCCCC3)c3ccccc3n2)cc1	< 1 µg/mL
CN(C)[C@@H]1CCN(c2cccc(Nc3nn4c(=O)c5ccccc5nc4s3)c2)C1	18.1 µg/mL (≈ 44.4 µM)
Fc1cccc(CN2CCNc3cc(Nc4ccccc4)ncc3C2)c1	27.3 µg/mL (≈ 78.3 µM)
O=C1CCc2cc(S(=O)(=O)Nc3ccc(F)c(Cl)c3)ccc2N1	> 52 µg/mL
COc1cccc(CNc2ccc(S(=O)(=O)Nc3ccc(-c4ccccc4)cc3)cc2)c1O	< 1 µg/mL
CCc1cccc(CC)c1-n1c(C=C(C)C)c(C(=O)N2CCNCC2)cc(-c2nc(-c3ccc(C(F)(F)F)cc3)cs2)c1=O	< 1 µg/mL
COc1ccc(NC(=O)c2c(C)cccc2C)cc1[S+](=O)([O-])N1CCCCCC1	15.8 µg/mL (≈ 37.9 µM)
CNc1oc(-c2cccc(-c3ccccc3)c2)nc1C#N	< 1 µg/mL
O=C(Nc1nc(-c2ccccc2)cs1)c1ccncc1NS(=O)(=O)c1ccc(F)cc1F	> 70 µg/mL
CCOC(=O)N1CCN(Cc2nc3c(c(=O)n(C)c(=O)n3C)n2Cc2cccc(C)c2)CC1	> 67 µg/mL
O=C1CCCC2=C1C(c1[nH]ncc1Cl)N=C(Nc1nc3cc([S+](=O)([O-])N4CCOCC4)ccc3o1)N2 (stereo not drawn)	> 78 µg/mL
CN(C)CCNC(=O)c1nc2nc(-c3ccccc3)c(-c3cccc(Cl)c3)cc2n1C	66.8 µg/mL (≈ 154 µM)
COCCNC(=O)c1ccc(-c2ncc3cnc(-c4cccc(F)c4)cn23)cc1	28.1 µg/mL (≈ 71.9 µM)
COc1ccc(-n2nc(C)c([C@@H]3C=C[C@@H](NCc4ccc(F)cc4)C3)c2C)cc1	42 µg/mL (≈ 107 µM)
